# Where a name gives a salt, the structure may show the parent alone.
# Biological target: T1, recombinant human beta tryptase (Homo sapiens, UniProt P20231)
# T1 construct: made in house; host or cells: yeast cells
# Test: beta-Tryptase inhibition, chromogenic enzyme assay (substrate S2366, read at 405 nm)
# Format: biochemical
# Conditions: Ki calculated from IC50: Ki=IC50/(1+[Substrate]/Km); 0.5 mM substrate, room temperature; read-out: Tryptase Ki
# Procedure, shortened: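 Recombinant human beta tryptase (yeast-expressed; native lung enzyme also used), 50 ng/mL final, with 0.5 mM (2×Km) chromogenic substrate S2366; 30 min in the dark, room temperature, read at 405 nm. Compounds at 0.01-10 μM in duplicate for IC50; Ki=IC50/(1+[S]/Km).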
# T1 sequence (P20231 31-275): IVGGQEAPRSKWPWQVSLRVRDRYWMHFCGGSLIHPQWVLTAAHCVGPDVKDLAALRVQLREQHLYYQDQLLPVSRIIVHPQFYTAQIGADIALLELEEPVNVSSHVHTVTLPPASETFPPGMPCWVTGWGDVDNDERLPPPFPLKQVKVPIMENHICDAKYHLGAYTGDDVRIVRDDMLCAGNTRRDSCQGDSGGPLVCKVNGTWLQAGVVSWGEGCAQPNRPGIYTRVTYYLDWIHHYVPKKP
row,Ki,SMILES
1,142 nM,"COCCn1cc(C(=O)N2CCC(c3cc(CN)ccc3F)CC2)c2c(C(=O)O)cccc21 [Example 109, 3-[4-(5-Aminomethyl-2-fluoro-phenyl)-piperidine-1-carbonyl]-1-(2-methoxy-ethyl)-1H-indole-4-carboxylic acid trifluoroacetate]"
2,656 nM,"COCCn1cc(C(=O)N2CCC(c3cccc(CN)n3)CC2)c2cccc(C)c21 [Example 113, (6-Aminomethyl-3′,4′,5′,6′-tetrahydro-2′H-[2,4]bipyridinyl-1′-yl)-[1-(2-methoxy-ethyl)-7-methyl-1H-indol-3-yl]-methanone dihydrochloride]"

# Same assay, conditions: Tryptase Ki (nM), Ki calculated from IC50: Ki=IC50/(1+[Substrate]/Km); 0.5 mM substrate, room temperature
row,SMILES,Ki
1,"COCCn1cc(C(=O)N2CCC(c3cc(CN)ccc3F)CC2)c2c(NC(=O)C3CCOCC3)cccc21 [Example 95, Tetrahydro-pyran-4-carboxylic acid [3-[4-(5-aminomethyl-2-fluoro-phenyl)-piperidine-1-carbonyl]-1-(2-methoxy-ethyl)-1H-indol-4-yl]-amide hydrochloride]",44 nM
2,"COCCn1cc(C(=O)N2CCC(c3cc(CN)ccc3F)CC2)c2c(NC(C)=O)cccc21 [Example 96, N-[3-[4-(5-Aminomethyl-2-fluoro-phenyl)-piperidine-1-carbonyl]-1-(2-methoxy-ethyl)-1H-indol-4-yl]-acetamide hydrochloride]",18 nM
3,"COCCn1cc(C(=O)N2CCC(c3cc(CN)ccc3F)CC2)c2c(NC(=O)C3CCN(C)CC3)cccc21 [Example 97, 1-Methyl-piperidine-4-carboxylic acid [3-[4-(5-aminomethyl-2-fluoro-phenyl)-piperidine-1-carbonyl]-1-(2-methoxy-ethyl)-1H-indol-4-yl]-amide hydrochloride]",28 nM
4,"COCCn1cc(C(=O)N2CCC(c3cc(CN)ccc3F)CC2)c2c(NC(=O)C3CC4CCC3C4)cccc21 (stereo not drawn) [Example 98, Bicyclo[2.2.1]heptane-2-carboxylic acid [3-[4-(5-aminomethyl-2-fluoro-phenyl)-piperidine-1-carbonyl]-1-(2-methoxy-ethyl)-1H-indol-4-yl]-amide hydrochloride]",147 nM
5,"COCCn1cc(C(=O)N2CCC(c3cc(CN)ccc3F)CC2)c2c(NC(=O)N3CCOCC3)cccc21 [Example 99, Morpholine-4-carboxylic acid [3-[4-(5-aminomethyl-2-fluoro-phenyl)-piperidine-1-carbonyl]-1-(2-methoxy-ethyl)-1H-indol-4-yl]-amide hydrochloride]",25 nM
6,"COCCn1cc(C(=O)N2CCC(c3cc(CN)ccc3F)CC2)c2c(NC(=O)N(C)C)cccc21 [Example 100, 3-[3-[4-(5-Aminomethyl-2-fluoro-phenyl)-piperidine-1-carbonyl]-1-(2-methoxy-ethyl)-1H-indol-4-yl]-1,1-dimethyl-urea hydrorchloride]",17 nM
7,"COCCn1cc(C(=O)N2CCC(c3cc(CN)ccc3F)CC2)c2c(NC(=O)c3ccncc3)cccc21 [Example 101, N-[3-[4-(5-Aminomethyl-2-fluoro-phenyl)-piperidine-1-carbonyl]-1-(2-methoxy-ethyl)-1H-indol-4-yl]-isonicotinamide hydrochloride]",11 nM
8,"COCCn1cc(C(=O)N2CCC(c3cc(CN)ccc3F)CC2)c2c(NC(=O)c3cncnc3)cccc21 [Example 102, Pyrimidine-5-carboxylic acid [3-[4-(5-aminomethyl-2-fluoro-phenyl)-piperidine-1-carbonyl]-1-(2-methoxy-ethyl)-1H-indol-4-yl]-amide hydrochloride]",22 nM
9,"COCCn1cc(C(=O)N2CCC(c3cc(CN)ccc3F)CC2)c2c(NC(=O)c3ccno3)cccc21 [Example 103, Isoxazole-5-carboxylic acid [3-[4-(5-aminomethyl-2-fluoro-phenyl)-piperidine-1-carbonyl]-1-(2-methoxy-ethyl)-1H-indol-4-yl]-amide hydrochloride]",41 nM
10,"COCCn1cc(C(=O)N2CCC(c3cc(CN)ccc3F)CC2)c2c(NS(=O)(=O)N(C)C)cccc21 [Example 104, Dimethylamino-1-sulfonic acid [3-[4-(5-aminomethyl-2-fluoro-phenyl)-piperidine-1-carbonyl]-1-(2-methoxy-ethyl)-1H-indol-4-yl]-amide]",204 nM
11,"COCCn1cc(C(=O)N2CCC(c3cc(CN)ccc3F)CC2)c2c(NS(=O)(=O)c3cn(C)cn3)cccc21 [Example 105, 1-Methyl-1H-imidazole-4-sulfonic acid [3-[4-(5-aminomethyl-2-fluoro-phenyl)-piperidine-1-carbonyl]-1-(2-methoxy-ethyl)-1H-indol-4-yl]-amide hydrochloride]",100 nM
12,"COCCn1cc(C(=O)N2CCC(c3cc(CN)ccc3F)CC2)c2c(NS(=O)(=O)c3cccnc3)cccc21 [Example 106, Pyridine-3-sulfonic acid [3-[4-(5-aminomethyl-2-fluoro-phenyl)-piperidine-1-carbonyl]-1-(2-methoxy-ethyl)-1H-indol-4-yl]-amide hydrochloride]",149 nM
13,"CCCCS(=O)(=O)Nc1cccc2c1c(C(=O)N1CCC(c3cc(CN)ccc3F)CC1)cn2CCOC [Example 107, Butane-1-sulfonic acid [3-[4-(5-aminomethyl-2-fluoro-phenyl)-piperidine-1-carbonyl]-1-(2-methoxy-ethyl)-1H-indol-4-yl]-amide hydrochloride]",315 nM
14,"COCCn1cc(C(=O)N2CCC(c3cc(CN)ccc3F)CC2)c2c(C(=O)N3CCCC3)cccc21 [Example 108, [4-(5-Aminomethyl-2-fluoro-phenyl)-piperidin-1-yl]-[1-(2-methoxy-ethyl)-4-(pyrrolidine-1-carbonyl)-1H-indol-3-yl]-methanone hydrochloride]",15 nM
15,"COCCn1cc(C(=O)N2CCC(c3cc(CN)ccc3C(F)(F)F)CC2)c2cccc(C)c21 [Example 110, [4-(5-Aminomethyl-2-trifluoromethyl-phenyl)-piperidin-1-yl]-[1-(2-methoxy-ethyl)-7-methyl-1H-indol-3-yl]-methanone hydrochloride]",1260 nM
16,"COCCn1cc(C(=O)N2CCC(c3cc(CN)c(F)cc3F)CC2)c2cccc(C)c21 [Example 111, [4-(5-Aminomethyl-2,4-difluoro-phenyl)-piperidin-1-yl]-[1-(2-methoxy-ethyl)-7-methyl-1H-indol-3-yl]-methanone hydrochloride]",1020 nM
17,"COCCn1cc(C(=O)N2CCC(c3ccc(F)c(CN)c3)CC2)c2cccc(C)c21 [Example 112, [4-(3-Aminomethyl-4-fluoro-phenyl)-piperidin-1-yl]-[1-(2-methoxy-ethyl)-7-methyl-1H-indol-3-yl]-methanone hydrochloride]",998 nM
18,"CCCCOc1ccc(CN)cc1C1CCN(C(=O)c2cn(CCOC)c3c(C)cccc23)CC1 [Example 114, [4-(5-Aminomethyl-2-butoxy-phenyl)-piperidin-1-yl]-[1-(2-methoxy-ethyl)-7-methyl-1H-indol-3-yl]-methanone hydrochloride]",526 nM
19,"COCCn1cc(C(=O)N2CCC(c3cc(CN)ccc3OCCc3ccccc3)CC2)c2cccc(C)c21 [Example 115, [4-(5-Aminomethyl-2-phenethyloxy-phenyl)-piperidin-1-yl]-[1-(2-methoxy-ethyl)-7-methyl-1H-indol-3-yl]-methanone hydrochloride]",390 nM
20,"COCCn1cc(C(=O)N2CCC(c3cc(F)cc(CN)c3)CC2)c2cccc(C)c21 [Example 116, [4-(5-Aminomethyl-3-fluoro-phenyl)-piperidin-1-yl]-[1-(2-methoxy-ethyl)-7-methyl-1H-indol-3-yl]-methanone hydrochloride]",746 nM
21,"COCCn1cc(C(=O)N2CCC(c3cccc(CN)c3F)CC2)c2cccc(C)c21 [Example 117, [4-(3-Aminomethyl-2-fluoro-phenyl)-piperidin-1-yl]-[1-(2-methoxy-ethyl)-7-methyl-1H-indol-3-yl]-methanone hydrochloride]",756 nM
22,"COCCn1cc(C(=O)N2CCC(c3ccc(Cl)c(CN)c3)CC2)c2cccc(C)c21 [Example 118, [4-(3-Aminomethyl-4-chloro-phenyl)-piperidin-1-yl]-[1-(2-methoxy-ethyl)-7-methyl-1H-indol-3-yl]-methanone hydrochloride]",832 nM
23,"COCCn1cc(C(=O)N2CCC(c3cc(CN)ccn3)CC2)c2cccc(C)c21 [Example 119, (4-Aminomethyl-3′,4′,5′,6′-tetrahydro-2′H-[2,4′]bipyridinyl-1′-yl)-[1-(2-methoxy-ethyl)-7-methyl-1H-indol-3-yl]-methanone hydrochloride]",180 nM
24,"COCCn1cc(C(=O)N2CCC(c3cc(CN)ccc3F)CC2)c2c(NC(=O)c3cccc4c3OCC4)cccc21 [Example 120, 2,3-Dihydro-benzofuran-7-carboxylic acid [3-[4-(5-aminomethyl-2-fluoro-phenyl)-piperidine-1-carbonyl]-1-(2-methoxy-ethyl)-1H-indol-4-yl]-amide hydrochloride]",3 nM
25,"COCCn1cc(C(=O)N2CCC(c3cc(CN)ccc3F)CC2)c2c(NC(=O)c3cc4cccc(C)c4[nH]3)cccc21 [Example 121, 7-Methyl-1H-indole-2-carboxylic acid [3-[4-(5-aminomethyl-2-fluoro-phenyl)-piperidine-1-carbonyl]-1-(2-methoxy-ethyl)-1H-indol-4-yl]-amide dihydrochloride]",99 nM
26,"COCCn1cc(C(=O)N2CCC(c3cc(CN)ccc3F)CC2)c2c(NC(=O)C3CCCN(C)C3)cccc21 (stereo not drawn) [Example 122, 1-Methyl-piperidine-3-carboxylic acid [3-[4-(5-aminomethyl-2-fluoro-phenyl)-piperidine-1-carbonyl]-1-(2-methoxy-ethyl)-1H-indol-4-yl]-amide hydrochloride]",44 nM

# Same assay, conditions: Tryptase Ki (nM), additional value in parentheses tagged "719D" (code not explained)
row,SMILES,Ki
1,"COCCn1cc(C(=O)N2CCC(c3cc(CN)ccc3F)CC2)c2c(NC(=O)C3CCOCC3)cccc21 [Example 95, Tetrahydro-pyran-4-carboxylic acid [3-[4-(5-aminomethyl-2-fluoro-phenyl)-piperidine-1-carbonyl]-1-(2-methoxy-ethyl)-1H-indol-4-yl]-amide hydrochloride]",47 nM

# Same assay, conditions: Tryptase Ki (nM), additional value in parentheses tagged "8923" (code not explained)
row,SMILES,Ki
1,"COCCn1cc(C(=O)N2CCC(c3cc(CN)ccc3F)CC2)c2c(NC(=O)C3CCOCC3)cccc21 [Example 95, Tetrahydro-pyran-4-carboxylic acid [3-[4-(5-aminomethyl-2-fluoro-phenyl)-piperidine-1-carbonyl]-1-(2-methoxy-ethyl)-1H-indol-4-yl]-amide hydrochloride]",15 nM

# — patent US20120245161A1 (SANOFI, priority 2009, published 2012)
